Laboratory results reported in patent publication US20260258003A1, “SLACK-ACTIVATING COMPOUNDS AND THEIR MEDICAL USE” (Johann Wolfgang Goethe-Universität Frankfurt am Main, priority 2023, published 2026).
Read-outs that look alike come from different tables or passages of the source.

Legend:
human Slack = molecular target: T1, human Slack (Homo sapiens, UniProt Q5JUK3); assay: FluxOR potassium ion channel assay in HEK-Slack cells; type: cell-based; settings: Na+ free buffer with 2 mM Ca2+, 2 mM Mg2+, 0.03% DMSO; for Emax: read-out: FluxOR assay EMAX (% relative to Loxapine)
T1 construct: host or cells: HEK293
T1 sequence (Q5JUK3 1-1230): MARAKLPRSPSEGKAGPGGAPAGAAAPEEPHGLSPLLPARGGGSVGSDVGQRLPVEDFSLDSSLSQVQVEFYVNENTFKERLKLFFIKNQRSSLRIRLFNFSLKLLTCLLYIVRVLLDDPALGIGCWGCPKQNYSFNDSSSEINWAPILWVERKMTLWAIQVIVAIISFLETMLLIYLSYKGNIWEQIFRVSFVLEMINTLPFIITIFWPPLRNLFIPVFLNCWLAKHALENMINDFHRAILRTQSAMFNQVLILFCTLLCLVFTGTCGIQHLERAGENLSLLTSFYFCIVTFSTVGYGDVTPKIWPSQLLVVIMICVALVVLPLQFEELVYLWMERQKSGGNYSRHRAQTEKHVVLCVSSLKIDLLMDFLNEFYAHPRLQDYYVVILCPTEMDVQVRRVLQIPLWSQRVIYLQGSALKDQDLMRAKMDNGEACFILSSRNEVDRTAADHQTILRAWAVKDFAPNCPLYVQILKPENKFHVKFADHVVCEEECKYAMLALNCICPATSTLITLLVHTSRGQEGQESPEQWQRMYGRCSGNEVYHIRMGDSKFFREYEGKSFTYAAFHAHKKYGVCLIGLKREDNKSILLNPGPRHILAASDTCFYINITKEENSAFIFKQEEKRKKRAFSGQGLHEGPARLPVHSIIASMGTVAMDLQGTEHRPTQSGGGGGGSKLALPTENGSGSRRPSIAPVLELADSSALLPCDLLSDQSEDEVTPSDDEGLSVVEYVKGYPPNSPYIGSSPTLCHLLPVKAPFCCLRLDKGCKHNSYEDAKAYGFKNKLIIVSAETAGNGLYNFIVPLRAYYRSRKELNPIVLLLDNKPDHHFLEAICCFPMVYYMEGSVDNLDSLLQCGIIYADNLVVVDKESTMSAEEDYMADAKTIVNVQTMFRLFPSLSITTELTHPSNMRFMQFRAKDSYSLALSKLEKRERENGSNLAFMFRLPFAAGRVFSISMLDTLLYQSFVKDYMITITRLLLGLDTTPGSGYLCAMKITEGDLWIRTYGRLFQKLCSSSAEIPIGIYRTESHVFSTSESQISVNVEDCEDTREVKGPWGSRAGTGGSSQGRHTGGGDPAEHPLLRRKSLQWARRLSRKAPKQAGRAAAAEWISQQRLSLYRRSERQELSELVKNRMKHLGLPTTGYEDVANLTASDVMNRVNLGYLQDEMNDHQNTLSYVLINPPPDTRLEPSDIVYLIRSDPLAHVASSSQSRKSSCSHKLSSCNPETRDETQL
Method: For that purpose, cultured HEK293 cells stably expressing human Slack (herein referred to as HEK-Slack cells) were incubated with compounds in a Na^+ free buffer to prevent compound-independent Slack activation by monovalent cations^7,19.
In detail, in these experiments, the Slack-activating efficacy and potency of the novel compounds was determined using a commercial FluxOR™ Potassium Ion Channel Assay (Invitrogen). HEK293 cells stably expressing human Slack (herein referred to as HEK-Slack cells) were plated at a density of 50,000 cells per well of a poly-D-lysine coated (75 μg/mL, Sigma Aldrich) 96-well, black-walled microplate with clear bottom (Greiner Bio-One) in DMEM containing 10% FBS and 1% penicillin/streptomycin 24 hours prior to assaying.
On the experiment day, cells were loaded with FluxOR™ dye according to the manufacturer's protocol. A Na^+-free assay buffer containing 140 mM choline chloride, 5 mM KCl, 2 mM CaCl2), 2 mM MgSO4, 10 mM HEPES, 5.55 mM glucose, adjusted to pH 7.4 with KOH, was used. To reduce background fluorescence all assay components were complemented by 10% BackDrop™ Background Suppressor (Invitrogen). […]
After washing steps, cells were incubated with compounds for 30 min at 37° C. All compounds were prepared as a 33.3 mM DMSO stock and diluted at the experimental day to a final concentration of 100, 50, 25, 12.5, 6.25, and 3.125 μM in assay buffer containing […] DMSO. […] After stimulation with Tl2SO4 solution, the fluorescence was measured over 100 s (excitation 485 nm, emission 525 nm) using an Infinite M200 Microplate Reader (Tecan). Assays run in triplicate and the ratio to baseline fluorescence was calculated for all time points. Dose-response curves comprising six concentrations were performed in triplets using fluorescence/fluorescenceBaseline ratios at the 100th second.

[1] = BBB-specific parallel artificial membrane permeability assay (PAMPA-BBB); type: in vitro ADME, porcine; settings: pH 7.4, 37° C.; for MR (membrane retention factor): 4 h; for Papp at 4 h, 100 μM: pig, Pe in cm/s, read-out: BBB permeability log Pe (converted)
Method: BBB permeability was estimated using a BBB-specific parallel artificial membrane permeability assay (PAMPA-BBB). […] Five v/v % DMSO in PBS (Phosphate Buffer Saline; 0.01 M, pH=7.4) buffer solutions of each compound were prepared with the final nominal concentration of 100 μM. These solutions were treated with ultrasonic waves and then centrifuged in case the test compounds were insoluble at this concentration. Proceeding with saturated, homogenous solutions (CD(0)) is sufficient because log Pe only depends on relative concentrations. A BBB specific PAMPA system was used to determine the log Pe and membrane retention (MR). Each well of the top plate (MultiScreen […]10; Millipore; Billerica, US) was carefully coated with 5 μL of porcine polar brain lipid extract (PBLE; Avanti Polar Lipids, Birmingham, US) solution, then 150 μL of the CD(0) solution was put on the membrane. The bottom plate (MultiScreen MDCPN2M50; Millipore, Billerica, US) was filled with […] PBS. PBLE solution consisted of 1 mg PBLE per 10 μL n-dodecane and 30 μL n-hexane. The donor plate was put on the acceptor plate and covered with a wet paper tissue and a plate lid. The sandwich system was incubated at 37° C. for 4 h. The plates were shaken and incubated in a Thermo ScientificTM MaxQTM 4000 Benchtop Orbital Shaker (Gel, Belgium). After the incubation, PAMPA sandwich plates were separated and compound concentrations in donor (CD(t)) and acceptor (CA(t)) solutions were determined by UPLC-MS (Waters, Milford, US). The concentration of the donor solution at zero time point (CD(0)) was determined using the supernatant after centrifugation.

[2] = mean with 95% confidence interval, read-out: FluxOR assay EC50
[3] = mean with 95% confidence interval

Compound	EC50 (human Slack; [2])	Emax (human Slack; [3])	MR (membrane retention factor) [1]	Papp at 4 h, 100 μM [1]	EC50 (human Slack; first preliminary experiments, read-out: EC50 value in the first preliminary experiments)
CN1CCN(C2=Nc3ccccc3Oc3ccc(C(F)(F)F)cc32)CC1 [Compound 2, 11-(4-Methylpiperazin-1-yl)-2-(trifluoromethyl)dibenzo[b,f][1,4]oxazepine]	6.3 µM	114%	0.64	26.3 ×10⁻⁶ cm/s	
CN1CCCN(C2=Nc3ccccc3Oc3ccc(C(F)(F)F)cc32)CC1 [Compound 3, 11-(4-Methyl-1,4-diazepan-1-yl)-2-(trifluoromethyl)dibenzo[b,f][1,4]oxazepine]	3.2 µM	63.1%	0.5	38 ×10⁻⁶ cm/s	
CN1CCN(C2=Nc3cc(F)ccc3Oc3ccc(C(F)(F)F)cc32)CC1 [Compound 4, 8-Fluoro-11-(4-methylpiperazin-1-yl)-2-(trifluoromethyl)dibenzo[b,f][1,4]oxazepine]	41.5 µM	199%	0.74	21.4 ×10⁻⁶ cm/s	
OCCN1CCN(C2=Nc3ccccc3Oc3ccc(Cl)cc32)CC1 [Compound 5, 2-(4-(2-Chlorodibenzo[b,f][1,4]oxazepin-11-yl)piperazin-1-yl) ethan-1-ol]	26 µM	223%	0.03	39.8 ×10⁻⁶ cm/s	
O=C(O)COCCN1CCN(C2=Nc3ccccc3Oc3ccc(Cl)cc32)CC1 [Compound 6, 2-(2-(4-(2-Chlorodibenzo[b,f][1,4]oxazepin-11-yl)piperazin-1-yl)ethoxy) acetic acid]	30.3 µM	96.2%		24.5 ×10⁻⁶ cm/s	
OCCOCCN1CCN(C2=Nc3ccccc3Sc3ccc(Cl)cc32)CC1 [Compound 7, 2-(2-(4-(2-Chlorodibenzo[b,f][1,4]thiazepin-11-yl)piperazin-1-yl)ethoxy) ethan-1-ol]	30 µM	87.4%	0.19	53.7 ×10⁻⁶ cm/s	
O=C(O)COCCN1CCN(C2=Nc3ccccc3Oc3ccc(C(F)(F)F)cc32)CC1 [Compound 8, 2-(2-(4-(2-(Trifluoromethyl)dibenzo[b,f][1,4]oxazepin-11-yl)piperazin-1-yl)ethoxy) acetic acid]	62.5 µM	177%		26.3 ×10⁻⁶ cm/s	
O=C(O)COCCN1CCCN(C2=Nc3ccccc3Oc3ccc(C(F)(F)F)cc32)CC1 [Compound 9, 2-(2-(4-(2-(Trifluoromethyl)dibenzo[b,f][1,4]oxazepin-11-yl)-1,4-diazepan-1-yl)ethoxy) acetic acid]	50.9 µM	186%	−0.10	35.5 ×10⁻⁶ cm/s	
O=c1nc(CN2CCN(C3=Nc4ccccc4Oc4ccc(Cl)cc43)CC2)[nH][nH]1 [Compound 10, 5-((4-(2-Chlorodibenzo[b,f][1,4]oxazepin-11-yl)piperazin-1-yl)methyl)-1,2-dihydro-3H-1,2,4-triazol-3-one]	22.1 µM	120%	0.02		
CN1CCN(C2=Nc3ccccc3Oc3ccc(Cl)cc32)CC1 [Loxapine, 2-chloro-11-(4-methylpiperazin-1-yl)dibenzo[b,f][1,4]oxazepine, reference compound]	20.7 µM	100%	0.33		23.4 µM
